Here are results for six molecules from US20170056422A1, “PLASMODIUM LIVER-STAGE INHIBITORS AND RELATED METHODS” (Seattle Biomedical Research Institute, priority 2014, published 2017).

“Also recorded” adds a separate entry of the source. Where two headings read alike, the source gives them in different places.

Data set [1] deals with Hepa 1-6 cells. Description: Cell permeabilization (cell death) assay, flow cytometry. Particulars: 48 hour treatment. It counts as cell-based.
Experimental: Cell Permeabilization Assay. Hepa 1-6 cells were seeded in a 24-well tissue culture-treated plate at 3×10^5 cells per well overnight. […] Briefly, cells were stained live with reconstituted dye (1:500) in 500 μL PBS on ice for 30 minutes, mixing periodically, washed twice with 500 μL PBS, and then fixed with 100 μL BD Cytofix/Cytoperm™ fixation/permeabilization (BD Biosciences, San Jose, Calif., USA) solution for 15 minutes on ice. Cells were stored in 200 μL 5 mM EDTA in PBS at 4° C. until analyzed using a BD™ LSR II flow cytometer (BD Biosciences) at 605 nm on the violet 405 nm laser, and resulting FCS files were analyzed with FlowJo 7.6.1 (Tree Star, Ashland, Oreg., USA).
For data set [2] the following is noted: cited from earlier work.
In data set [3] the test system is P. yoelii LS parasites. Description: Quantification of LS parasites in P. yoelii-infected Hepa 1-6 cells by manual counting. It counts as cell-based, Plasmodium yoelii. Particulars: for LS burden: 100 nM, 24 or 48 hours; for effect of adding pan-caspase inhibitor qVD-OPh on the LS reduction by the drug: qVD-OPh 20 μM. The procedure:
Quantification of LS parasites after ABT-737, ABT-199, Obatoclax, Nutlin-3, or Serdemetan treatment by manual counting. In all, 1.5×10^5 Hepa 1-6 cells were seeded in DMEM complete medium in each well of an eight-well Permanox slide. Cells were infected with 5×10^4 P. yoelii sporozoites. Slides were centrifuged for 3 min at 515× g in a hanging-bucket centrifuge to aid in sporozoite invasion. After 90 min, we removed media that contained sporozoites that had not infected the cells and added fresh media only, or media containing ABT-737 (100 nM), ABT-199 (100 nM), Obatoclax (100 nM), Nutlin-3 (20 μM), or Serdemetan (10 μM) with or without qVD-OPh (20 μM). We allowed LSs to develop for 24 hours or 48 hours, at which time cells were fixed with 4% paraformaldehyde, blocked, and permeabilized for 1 hour in PBS with the addition of 0.1% Triton X-100 and 2% BSA. Staining steps were performed in PBS supplemented with 2% BSA. We stained cells using anti-sera to Plasmodium HSP70 and UIS4 proteins at 4° C. overnight and then washed several times, and antibodies were visualized with the use of AlexaFluor-488 goat anti-mouse and AlexaFluor-594 goat anti-rabbit secondary antibody (Life Technologies, Grand Island, N.Y., USA). We used DAPI stain to visualize both hepatocyte and parasite nuclei. Sporozoites that had not invaded and/or developed in hepatoma cells were distinguished by UIS4 circumferential staining and morphology. All LS parasites in each well were counted, and each assay was performed in biological triplicate.

The test system of data set [4] is P. yoelii. Description: Nutlin-3 and Obatoclax in vivo, blood stage patency in BALB/cJ mice. Conditions: Nutlin-3 200 mg/kg twice daily, Obatoclax 5 mg/kg once daily; 1000 or 100 spz i.v. How it is done:
Nutlin-3 and Obatoclax in vivo experiments. 60 BALB/cJ mice (Jackson Laboratory, Bar Harbor, Me., USA) were treated with either vehicle control 5 mg/kg of Obatoclax, 200 mg/kg Nutlin-3, or both Obatoclax and Nutlin-3 by oral gavage once (Obatoclax) or twice (Nutlin-3) daily for 3 days. On the second day of treatment, mice were injected with 1000 or 100 P. yoelii sporozoites. Patency was checked by Giemsa-stained thin blood smear daily for the first 7 days, then every other day until day 14. Animal handling was conducted according to the Institutional Animal Care and Use Committee-approved protocols.

Data set [5] relates to P. yoelii. Description: Specific action of Nutlin-3 in vivo, patency in wild-type and liver-specific p53 knockout mice. Conditions: 1000 spz. An excerpt: Specific Action of Nutlin-3 in vivo experiment. Liver-specific p53 knock-out mice were generated by breeding p53 floxed mice (B6.129P2-Trp53tm1Brn/J) and cre-albumin (B6.Cg-Tg(Alb-cre)21Mgn/J). P53 floxed/unfloxed alleles were identified by size of band on a 2% agarose gel (270 bp for WT, 390 bp for floxed) using the primers: forward—[…] (SEQ ID NO:1) and reverse—[…] (SEQ ID NO:2). Cre was identified by the presence/absence of the mutant allele (heterozygotes vs. homozygotes were not distinguished) using the primers: forward—[…] (SEQ ID NO:3) and reverse—[…] (SEQ ID NO:4). All DNA was extracted using Qiagen DNEasy Blood & Tissue Kit (Qiagen Inc., Valencia, Calif., USA) per manufacturer's protocol. PCR was performed using BioMix Red (2×) from BioLine (BioLine USA Inc., Taunton, Mass., USA).
Both wild-type p53 (cre-alb) and liver-specific p53 knockout mice (cre-alb/flox-p53) were treated with either vehicle or Nutlin-3 as described in the previous in vivo method. On the second day of treatment, all mice were infected i.v. with 1000 P. yoelii sporozoites. Patency was checked by Giemsa-stained thin blood smear daily until all mice became patent. Animal handling was conducted according to the Institutional Animal Care and Use Committee-approved protocols.

For data set [6], the system named is p53. Description: Quantification of p53 by Western blotting in Hepa 1-6 cells. The format is cell-based. Particulars: immunoblot, 24 or 48 hours. The procedure: Quantification of p53 by Western Blotting. We plated 10^6 Hepa 1-6 cells per well of a 6-well plate in DMEM complete media and treated with complete media only, 20 μM Nutlin-3, 100 nM ABT-737, 100 nM Obatoclax, or 10 μM Serdemetan for 24 or 48 hours. Cells were lysed in SDS lysis buffer (2% SDS, 50 mM Tris-HCl, 5% glycerol, 5 mM EDTA, 1 mM NaF, 10 mM β-glycerophosphate, 1 mM PMSF, 1 mM activated Na3VO4, 1 mM DTT, 1% phosphatase inhibitor cocktail 2; Sigma-Aldrich), 1% PhosSTOP Phosphatase Inhibitor Cocktail Tablet (Roche), filtered overnight at 3000 rpm through AcroPrep Advance Filter Plates (Pall Corporation) and stored at −80° C. Western blots were performed according to manufacturer instruction with the iBlot Dry Transfer System (Life Technologies, Carlsbad, Calif., USA) using an antibody to p53 (Clone 1C12; Cell Signaling Technology) and then normalized to signal from an anti-β-actin (Cell Signaling Technology) Western blot. Signals from immunoblots were detected using either an Alexa 680-conjugated anti-rabbit antibody or an Alexa 800-conjugated anti-mouse antibody (LI-COR Biosciences). Membranes were visualized using an Odyssey infrared imaging system (LI-COR Biosciences).

Data set [7] concerns Hepa 1-6 cells. Description: Apoptosis in Hepa 1-6 cells (data not shown). The format is cell-based.
Data set [8] concerns P. yoelii LS parasites. Nature of the data set: Quantification of LS parasites in P. yoelii-infected Hepa 1-6 cells by manual counting. Particulars: Serdemetan 10 μM for 24 hours both before and after infection. The format is cell-based, Plasmodium yoelii.
The conditions of data set [9]: reportedly; cited from earlier work.

For the molecule `COC1=CC(c2cc3ccccc3[nH]2)=N/C1=C\c1[nH]c(C)cc1C` [Obatoclax], the “uninfected hepatoma cell death” value in data set [1] is listed as “no increase”. The tolerability in humans result in [2] (human, in vivo) is given as “well-tolerated”.

With `CC1(C)CCC(CN2CCN(c3ccc(C(=O)NS(=O)(=O)c4ccc(NCC5CCOCC5)c([N+](=O)[O-])c4)c(Oc4cnc5[nH]ccc5c4)c3)CC2)=C(c2ccc(Cl)cc2)C1` [ABT-199], in data set [3], the LS burden result was “minimal decrease; also recorded: did not reduce LS burden”.

In the case of `COc1ccc(C2=N[C@@H](c3ccc(Cl)cc3)[C@@H](c3ccc(Cl)cc3)N2C(=O)N2CCNC(=O)C2)c(OC(C)C)c1` [Nutlin-3], the “uninfected hepatoma cell death” value in [1] is “no increase”. For the same molecule, the onset of patency result in [4] is recorded as “delay in the onset of patency”; in [5] (cre-Alb (wild-type p53) mice, 200 mg/kg twice daily oral gavage) it was “highly effective”; in data set [5] (liver-specific p53 knockout mice (p53-flox/cre-Alb), 200 mg/kg twice daily) it was “did not delay the onset of patency”. Further, the “liver stage parasites eliminated” value in [3] (Nutlin-3 20 μM, 48 hours) amounted to 97%. The “effect of adding pan-caspase inhibitor qVD-OPh on the LS reduction by the drug” value in data set [3] is listed as “completely unaltered”. In [6], the p53 protein levels entry is on record as “substantially boosted”.

With `CC(C)[C@H](NC(=O)c1ccc2ccccc2n1)C(=O)N[C@@H](CC(=O)O)C(=O)COc1c(F)cccc1F` [qVD-OPh, N-(2-Quinolyl)-L-valyl-L-aspartyl-(2,6-difluorophenoxy) methylketone], the “apoptosis in Hepa 1-6 cells” value in data set [7] is “reverses nearly all apoptosis”.

For the molecule `c1ccc2c(CCNc3ccc(Nc4ccncc4)cc3)c[nH]c2c1` [Serdemetan], the tolerability in humans entry in data set [2] (clinical trials) is on record as “well-tolerated”. Also, the “P. yoelii LS burden versus Serdemetan concentration” value in data set [3] (48 hours) was “dose-dependent manner”. In addition, the LS-infected hepatocytes eliminated entry in data set [3] (in vitro, half the dose of Nutlin-3) is given as “more than 90%”. In addition, the “effect of adding pan-caspase inhibitor qVD-OPh on the LS reduction by the drug” value in data set [3] was “did not reverse”. Further, the p53 protein levels entry in data set [6] is listed as “substantially boosted”. Moreover, the LS parasites result in [8] is “completely eliminated”. Besides, the “toxicity compared with Nutlin-3” value in data set [9] is “lower toxicity”.

Consider `CN(C)CC[C@H](CSc1ccccc1)Nc1ccc(S(=O)(=O)NC(=O)c2ccc(N3CCN(Cc4ccccc4-c4ccc(Cl)cc4)CC3)cc2)cc1[N+](=O)[O-]` [ABT-737], for which, in [1], the “uninfected hepatoma cell death” value is listed as “no increase”. In data set [3], the LS burden result is recorded as “efficiently eliminates parasites” and the “effect of adding pan-caspase inhibitor qVD-OPh on the LS reduction by the drug” value is listed as “almost completely reversed”. In addition, in data set [6], the p53 protein levels result is listed as “do not increase p53 levels”.
